Data on six molecules can be found in ChEMBL document CHEMBL1139487, “Discovery of corticotropin releasing factor 2 receptor selective sauvagine analogues for treatment of skeletal muscle atrophy” (J Med Chem, 2005).

Test [1] relates to Mus musculus. The test can be described thus: In vivo percentage inhibition against casting induced tibialis anterior mass loss in mouse at a dosage of 10 ug/kg/day. Type of test: functional.
In test [2] the test system is Mus musculus. Kind of test: In vivo percentage inhibition against casting induced tibialis anterior mass loss in mouse at a dosage of 30 ug/kg/day. Type of test: functional.
Test [3] deals with Mus musculus. The test can be described thus: In vivo percentage inhibition against casting induced tibialis anterior mass loss in mouse at a dosage of 100 ug/kg/day. Type of test: functional.
Test [4] concerns the target T1, Corticotropin-releasing factor receptor 1 (Mus musculus, UniProt P35347).
T1 sequence (P35347 whole entry): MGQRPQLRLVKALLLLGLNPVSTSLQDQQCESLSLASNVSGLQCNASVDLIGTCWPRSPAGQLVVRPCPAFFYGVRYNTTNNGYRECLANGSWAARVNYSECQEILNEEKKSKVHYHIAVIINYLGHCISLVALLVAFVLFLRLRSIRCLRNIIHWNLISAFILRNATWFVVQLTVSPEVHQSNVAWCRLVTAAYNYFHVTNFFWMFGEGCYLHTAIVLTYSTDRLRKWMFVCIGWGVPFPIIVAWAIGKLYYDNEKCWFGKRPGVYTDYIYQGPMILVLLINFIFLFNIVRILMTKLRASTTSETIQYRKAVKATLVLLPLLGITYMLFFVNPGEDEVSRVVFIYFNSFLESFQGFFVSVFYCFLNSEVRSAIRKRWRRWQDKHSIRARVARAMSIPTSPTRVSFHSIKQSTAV
Kind of test: In vitro effective concentration for mouse corticotropin releasing factor 1 receptor.

In test [5] the target is Corticotropin-releasing factor receptor 2 (Mus musculus, UniProt Q60748). The test can be described thus: In vitro effective concentration for mouse corticotropin releasing factor 2 receptor.
Test [6] deals with T2, Corticotropin-releasing factor receptor 1 (Mus musculus) (UniProt P35347).
T2 sequence (whole entry): T1 sequence (P35347 whole entry)
Kind of test: In vitro agonistic activity against mouse corticotropin releasing factor 1 receptor. Format: functional.

In test [7] the target is Corticotropin-releasing factor receptor 2 (Mus musculus) (UniProt Q60748). Kind of test: In vitro agonistic activity against mouse corticotropin releasing factor 2 receptor. Format: functional.
For test [8], the species on record is Mus musculus. Kind of test: Selectivity ratio of EC50s for mouse corticotropin releasing factor receptors 1 and 2.

Square brackets hold non-standard residues; d marks the D form. Peptide text beside a SMILES is read from it. 2Nal = N[C@@H](Cc1ccc2ccccc2c1)C(=O)O; pGlu = O=C1CC[C@@H](C(=O)O)N1

What is called inhibition in vivo is the relative decrease from the control value, in per cent. A high value points to a strong effect. The EC50 is the midpoint of the concentration-response curve. For orientation: Emax means the maximal effect, on the per cent scale that the assay sets.

Corticotropin-releasing factor receptor 2 (Mus musculus), sequence (Q60748 whole entry): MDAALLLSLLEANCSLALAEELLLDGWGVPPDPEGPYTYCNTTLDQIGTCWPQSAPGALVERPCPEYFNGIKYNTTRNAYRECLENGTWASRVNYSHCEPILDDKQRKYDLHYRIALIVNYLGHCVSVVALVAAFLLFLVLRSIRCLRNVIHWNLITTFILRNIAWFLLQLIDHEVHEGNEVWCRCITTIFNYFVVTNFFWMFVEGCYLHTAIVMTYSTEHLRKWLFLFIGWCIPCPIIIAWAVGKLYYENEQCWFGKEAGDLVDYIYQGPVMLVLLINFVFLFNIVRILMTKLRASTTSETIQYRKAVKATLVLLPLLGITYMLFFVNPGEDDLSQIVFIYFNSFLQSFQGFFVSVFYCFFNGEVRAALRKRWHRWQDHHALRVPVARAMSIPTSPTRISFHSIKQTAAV
Corticotropin-releasing factor receptor 2, sequence (Q60748 whole entry): as above

`CC[C@H](C)[C@H](NC(=O)[C@@H](NC(=O)[C@H](CC(=O)O)NC(=O)[C@H](CC(C)C)NC(=O)[C@H](CC(C)C)NC(=O)[C@H](CC(C)C)NC(=O)[C@H](CCCN=C(N)N)NC(=O)[C@H](CC(N)=O)NC(=O)[C@H](CC(N)=O)NC(=O)[C@H](C)NC(=O)[C@H](C)NC(=O)[C@H](CCC(N)=O)NC(=O)[C@H](CCC(N)=O)NC(=O)[C@H](CCCCN)NC(=O)[C@H](CCC(=O)O)NC(=O)[C@H](CCCCN)NC(=O)[C@H](CCC(=O)O)NC(=O)[C@H](CCC(N)=O)NC(=O)[C@H](CCCCN)NC(=O)[C@H](CCC(=O)O)NC(=O)[C@@H](NC(=O)[C@H](CCC(=O)O)NC(=O)[C@@H](NC(=O)[C@H](CCSC)NC(=O)[C@H](CCCCN)NC(=O)[C@H](CCCN=C(N)N)NC(=O)[C@H](CC(C)C)NC(=O)[C@H](Cc1ccc2ccccc2c1)NC(=O)[C@H](Cc1c[nH]c2ccccc12)NC(=O)[C@H](CC(C)C)NC(=O)[C@@H]1CCCN1C(=O)[C@H](CC(C)C)NC(=O)[C@H](CC(=O)O)NC(=O)[C@@H](NC(=O)[C@H](CO)NC(=O)[C@@H](NC(=O)[C@@H]1CCCN1C(=O)[C@@H]1CCCN1C(=O)CNC(=O)[C@@H]1CCC(=O)N1)[C@@H](C)CC)[C@@H](C)CC)[C@@H](C)CC)[C@@H](C)CC)[C@@H](C)O)C(=O)O` ([pGlu]GPPISIDLPLW[2Nal]LRKMIEIEKQEKEKQQAANNRLLLDTI-OH) had an inhibition in vivo at 0.01 mg/kg/day with Mus musculus [1] of 53%. In the test with Mus musculus [2], the inhibition in vivo at 0.03 mg/kg/day was 45%. In the test on Mus musculus [3], this molecule registered an inhibition in vivo at 0.1 mg/kg/day of 79%. Moreover, the concentration for a half-maximal effect (EC50) in test [4] is 63.4 nM; in test [5], 3.3 nM. Moreover, the values for the Emax in test [6] and in test [7] were 100% and 73%, respectively. Besides, the Selectivity in the test filed under Mus musculus [8] amounted to 19.

For `CC[C@H](C)[C@H](NC(=O)[C@@H](NC(=O)[C@H](CC(=O)O)NC(=O)[C@H](CC(C)C)NC(=O)[C@H](CC(C)C)NC(=O)[C@H](CC(C)C)NC(=O)[C@H](CCCN=C(N)N)NC(=O)[C@H](CC(N)=O)NC(=O)[C@H](CC(N)=O)NC(=O)[C@H](C)NC(=O)[C@H](C)NC(=O)[C@H](CCC(N)=O)NC(=O)[C@H](CCC(N)=O)NC(=O)[C@H](CCCCN)NC(=O)[C@H](CCC(=O)O)NC(=O)[C@H](CCCCN)NC(=O)[C@H](CCC(=O)O)NC(=O)[C@H](CCC(N)=O)NC(=O)[C@H](CCCCN)NC(=O)[C@H](CCC(=O)O)NC(=O)[C@@H](NC(=O)[C@H](CCC(=O)O)NC(=O)[C@@H](NC(=O)[C@H](CCSC)NC(=O)[C@H](CCCCN)NC(=O)[C@H](CCCN=C(N)N)NC(=O)[C@H](CC(C)C)NC(=O)[C@H](CC(C)C)NC(=O)[C@@H](NC(=O)[C@H](CCC(N)=O)NC(=O)[C@@H]1CCCN1C(=O)[C@H](CC(C)C)NC(=O)[C@H](CC(=O)O)NC(=O)[C@@H](NC(=O)[C@H](CO)NC(=O)[C@@H](NC(=O)[C@@H]1CCCN1C(=O)[C@@H]1CCCN1C(=O)CNC(=O)[C@@H]1CCC(=O)N1)[C@@H](C)CC)[C@@H](C)CC)[C@@H](C)CC)[C@@H](C)CC)[C@@H](C)CC)[C@@H](C)O)C(=O)O`, the inhibition in vivo at 0.01 mg/kg/day in the test on Mus musculus [1] is 32%. The molecule also showed an inhibition in vivo at 0.03 mg/kg/day in the test with Mus musculus [2] of 14%. Besides, the inhibition in vivo at 0.1 mg/kg/day in the test with Mus musculus [3] came out at 73%. The maximum response (Emax) in test [6] and in test [7] was 93% throughout. Moreover, the Selectivity in the test filed under Mus musculus [8] was 83.

Turning to `CC[C@H](C)[C@H](NC(=O)[C@@H](NC(=O)[C@H](CC(=O)O)NC(=O)[C@H](CC(C)C)NC(=O)[C@H](CC(C)C)NC(=O)[C@H](CC(C)C)NC(=O)[C@H](CCCN=C(N)N)NC(=O)[C@H](CC(N)=O)NC(=O)[C@H](CC(N)=O)NC(=O)[C@H](C)NC(=O)[C@H](C)NC(=O)[C@H](CCC(N)=O)NC(=O)[C@H](CCC(N)=O)NC(=O)[C@H](CCCCN)NC(=O)[C@H](CCC(=O)O)NC(=O)[C@H](CCCCN)NC(=O)[C@H](CCC(=O)O)NC(=O)[C@H](CCC(N)=O)NC(=O)[C@H](CCCCN)NC(=O)[C@H](CCC(=O)O)NC(=O)[C@@H](NC(=O)[C@H](CCC(=O)O)NC(=O)[C@@H](NC(=O)[C@H](CCSC)NC(=O)[C@H](CCCCN)NC(=O)[C@H](CCCN=C(N)N)NC(=O)[C@H](CC(C)C)NC(=O)[C@H](CC(C)C)NC(=O)[C@H](Cc1ccccc1)NC(=O)[C@@H](NC(=O)[C@@H]1CCCN1C(=O)[C@H](CC(C)C)NC(=O)[C@H](CC(=O)O)NC(=O)[C@@H](NC(=O)[C@H](CO)NC(=O)[C@@H](NC(=O)[C@@H]1CCCN1C(=O)[C@@H]1CCCN1C(=O)CNC(=O)[C@@H]1CCC(=O)N1)[C@@H](C)CC)[C@@H](C)CC)[C@@H](C)CC)[C@@H](C)CC)[C@@H](C)CC)[C@@H](C)O)C(=O)O`, the EC50 in test [4] is 756 nM; in test [5] it was 12.8 nM. Moreover, the Emax came out at 83% in test [6] and 100% in test [7]. In the test filed under Mus musculus [8], the Selectivity turned out to be 59.

Take `CC[C@H](C)[C@H](NC(=O)[C@@H](NC(=O)[C@H](CC(=O)O)NC(=O)[C@H](CC(C)C)NC(=O)[C@H](CC(C)C)NC(=O)[C@H](CC(C)C)NC(=O)[C@H](CCCN=C(N)N)NC(=O)[C@H](CC(N)=O)NC(=O)[C@H](CC(N)=O)NC(=O)[C@H](C)NC(=O)[C@H](C)NC(=O)[C@H](CCC(N)=O)NC(=O)[C@H](CCC(N)=O)NC(=O)[C@H](CCCCN)NC(=O)[C@H](CCC(=O)O)NC(=O)[C@H](CCCCN)NC(=O)[C@H](CCC(=O)O)NC(=O)[C@H](CCC(N)=O)NC(=O)[C@H](CCCCN)NC(=O)[C@H](CCC(=O)O)NC(=O)[C@@H](NC(=O)[C@H](CCC(=O)O)NC(=O)[C@@H](NC(=O)[C@H](CCSC)NC(=O)[C@H](CCCCN)NC(=O)[C@H](CCCN=C(N)N)NC(=O)[C@H](CC(C)C)NC(=O)[C@H](CC(C)C)NC(=O)[C@H](CCC(N)=O)NC(=O)[C@@H](NC(=O)[C@@H]1CCCN1C(=O)[C@H](CC(C)C)NC(=O)[C@H](CC(=O)O)NC(=O)[C@@H](NC(=O)[C@H](CO)NC(=O)[C@@H](NC(=O)[C@@H]1CCCN1C(=O)[C@@H]1CCCN1C(=O)CNC(=O)[C@@H]1CCC(=O)N1)[C@@H](C)CC)[C@@H](C)CC)[C@@H](C)CC)[C@@H](C)CC)[C@@H](C)CC)[C@@H](C)O)C(=O)O`: the concentration giving a half-maximal response (EC50) in test [4] is greater than 1000 nM; in test [5], 24.6 nM. The maximal effect (Emax) in test [6] came out at 6%; in test [7] it was 78%. The Selectivity in the test filed under Mus musculus [8] is greater than 41.

In the case of `CC[C@H](C)[C@H](NC(=O)[C@@H](NC(=O)[C@H](CC(=O)O)NC(=O)[C@H](CC(C)C)NC(=O)[C@H](CC(C)C)NC(=O)[C@H](CC(C)C)NC(=O)[C@H](CCCN=C(N)N)NC(=O)[C@H](CC(N)=O)NC(=O)[C@H](CC(N)=O)NC(=O)[C@H](C)NC(=O)[C@H](C)NC(=O)[C@H](CCC(N)=O)NC(=O)[C@H](CCC(N)=O)NC(=O)[C@H](CCCCN)NC(=O)[C@H](CCC(=O)O)NC(=O)[C@H](CCCCN)NC(=O)[C@H](CCC(=O)O)NC(=O)[C@H](CCC(N)=O)NC(=O)[C@H](CCCCN)NC(=O)[C@H](CCC(=O)O)NC(=O)[C@@H](NC(=O)[C@H](CCC(=O)O)NC(=O)[C@@H](NC(=O)[C@H](CCSC)NC(=O)[C@H](CCCCN)NC(=O)[C@H](CCCN=C(N)N)NC(=O)[C@H](CC(C)C)NC(=O)[C@H](CC(C)C)NC(=O)[C@H](CC(C)C)NC(=O)[C@H](CCC(N)=O)NC(=O)[C@@H]1CCCN1C(=O)[C@H](CC(C)C)NC(=O)[C@H](CC(=O)O)NC(=O)[C@@H](NC(=O)[C@H](CO)NC(=O)[C@@H](NC(=O)[C@@H]1CCCN1C(=O)[C@@H]1CCCN1C(=O)CNC(=O)[C@@H]1CCC(=O)N1)[C@@H](C)CC)[C@@H](C)CC)[C@@H](C)CC)[C@@H](C)CC)[C@@H](C)O)C(=O)O`, the EC50 in test [4] was determined as 447 nM; in test [5], 27.6 nM. Also, the figures for the Emax in test [6] and in test [7] were 96% and 93%, respectively. The Selectivity in the test listed under Mus musculus [8] came to 16.

As to `CC[C@H](C)[C@H](NC(=O)[C@@H](NC(=O)[C@H](CC(=O)O)NC(=O)[C@H](CC(C)C)NC(=O)[C@H](CC(C)C)NC(=O)[C@H](CC(C)C)NC(=O)[C@H](CCCN=C(N)N)NC(=O)[C@H](CC(N)=O)NC(=O)[C@H](CC(N)=O)NC(=O)[C@H](C)NC(=O)[C@H](C)NC(=O)[C@H](CCC(N)=O)NC(=O)[C@H](CCC(N)=O)NC(=O)[C@H](CCCCN)NC(=O)[C@H](CCC(=O)O)NC(=O)[C@H](CCCCN)NC(=O)[C@H](CCC(=O)O)NC(=O)[C@H](CCC(N)=O)NC(=O)[C@H](CCCCN)NC(=O)[C@H](CCC(=O)O)NC(=O)[C@@H](NC(=O)[C@H](CCC(=O)O)NC(=O)[C@@H](NC(=O)[C@H](CCSC)NC(=O)[C@H](CCCCN)NC(=O)[C@H](CCCN=C(N)N)NC(=O)[C@H](CC(C)C)NC(=O)[C@H](CC(C)C)NC(=O)[C@H](Cc1ccccc1)NC(=O)[C@@H](NC(=O)[C@@H]1CCCN1C(=O)[C@H](CC(C)C)NC(=O)[C@H](CC(=O)O)NC(=O)[C@@H](NC(=O)[C@H](CO)NC(=O)[C@@H](NC(=O)[C@@H]1CCCN1C(=O)[C@@H]1CCCN1C(=O)CNC(=O)[C@@H]1CCC(=O)N1)[C@@H](C)CC)[C@@H](C)CC)[C@@H](C)O)[C@@H](C)CC)[C@@H](C)CC)[C@@H](C)O)C(=O)O`, the EC50 was 943 nM in test [4] and 19.2 nM in test [5]. Besides, the maximal response (Emax) came to 64% in test [6] and 87% in test [7]. The Selectivity in the test filed under Mus musculus [8] was 49.
